# According to ChEMBL document CHEMBL1201862, “PubChem BioAssay data set” (2004):
#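 How tested: cells in 96-well plates exposed to compound for 48 hours at five concentrations. GI50 marks 50% less growth.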 Activity calls are given as the source filed them. Rule as the data show it: active = GI50 up to about 1.1 µM and inactive = higher.
# Key:
# Assay in all cases: inhibition of tumour cell growth, NCI panel, 48 h
# [1] = test system: 786-0
# [2] = test system: CAKI-1
# [3] = test system: COLO 205
# [4] = test system: EKVX
# [5] = test system: HCT-116
# [6] = test system: HCT-15
# [7] = test system: HL-60
# [8] = test system: HOP-92
# [9] = test system: K562
# [10] = test system: MCF7
# [11] = test system: NCI-H23
# [12] = test system: NCI-H460
# [13] = test system: NCI-H522
# [14] = test system: NCI/ADR-RES
# [15] = test system: OVCAR-3
# [16] = test system: RPMI-8226
# [17] = test system: RXF 393
# [18] = test system: SF-539
# [19] = test system: SK-OV-3
# [20] = test system: SK-MEL-2
SMILES,GI50 [1],GI50 [2],GI50 [3],GI50 [4],GI50 [5],GI50 [6] [µM],GI50 [7],GI50 [8],GI50 [9],GI50 [10],GI50 [11],GI50 [12],GI50 [13],GI50 [14],GI50 [15],GI50 [16],GI50 [17],GI50 [18],GI50 [19],GI50 [20]
CCOC(=O)c1ccc(Nc2nc3cc(C(F)(F)F)ccc3nc2C(=O)OCC)cc1,25.4 µM (inactive),23.5 µM (inactive),46.9 µM (inactive),> 100 µM (inactive),34.2 µM (inactive),> 100,> 100 µM (inactive),50 µM (inactive),31 µM (inactive),> 100 µM (inactive),99.1 µM (inactive),74.3 µM (inactive),> 100 µM (inactive),> 100 µM (inactive),58.6 µM (inactive),> 100 µM (inactive),> 100 µM (inactive),50.9 µM (inactive),44.5 µM (inactive),
CC(C)(C)OC(=O)NC(Cc1ccc(OCc2ccccc2)cn1)C(=O)N1CCCC1 (stereo not given),> 100 µM (inactive),> 100 µM (inactive),68.9 µM (inactive),66.8 µM (inactive),79.3 µM (inactive),74.3,49.1 µM (inactive),> 100 µM (inactive),67.8 µM (inactive),62.1 µM (inactive),45.7 µM (inactive),78 µM (inactive),35.3 µM (inactive),25.1 µM (inactive),25.6 µM (inactive),54.6 µM (inactive),69.3 µM (inactive),23.2 µM (inactive),,> 100 µM (inactive)
CC(=O)OC1C[C@@H](C)C2(CC(c3ccoc3)OC2=O)C2CCC(O)C3(CO3)C12CO (stereo not given in full),> 100 µM (inactive),> 100 µM (inactive),> 100 µM (inactive),,> 100 µM (inactive),> 100,> 100 µM (inactive),> 100 µM (inactive),> 100 µM (inactive),> 100 µM (inactive),> 100 µM (inactive),> 100 µM (inactive),> 100 µM (inactive),> 100 µM (inactive),> 100 µM (inactive),> 100 µM (inactive),> 100 µM (inactive),> 100 µM (inactive),,> 100 µM (inactive)
O=C(c1ccccc1)c1sc2c(=O)c(C(=O)c3ccccc3)c(C(=O)c3ccccc3)sc2c(=O)c1C(=O)c1ccccc1,32.1 µM (inactive),18.9 µM (inactive),> 100 µM (inactive),> 100 µM (inactive),44.1 µM (inactive),35,21.5 µM (inactive),37.2 µM (inactive),15.9 µM (inactive),23.7 µM (inactive),42.3 µM (inactive),> 100 µM (inactive),18 µM (inactive),24.5 µM (inactive),98.6 µM (inactive),,23.8 µM (inactive),23.6 µM (inactive),37.8 µM (inactive),50.6 µM (inactive)
O=C1N(c2ccccc2)N=C2c3ccncc3C3=NN(c4ccccc4)C(=O)C123 (stereo not given),> 100 µM (inactive),,2.12 µM (inactive),> 100 µM (inactive),> 29.7 µM (inactive),13.2,0.619 µM (active),> 100 µM (inactive),0.252 µM (active),> 35.6 µM (inactive),> 70 µM (inactive),5.32 µM (inactive),> 100 µM (inactive),> 27.4 µM (inactive),> 100 µM (inactive),,> 100 µM (inactive),14.5 µM (inactive),> 100 µM (inactive),> 100 µM (inactive)
CN1C(=O)CN(NC(=O)C2=C(O)c3ccc(Br)cc3S(=O)(=O)N2)C1=S,> 100 µM (inactive),> 100 µM (inactive),> 100 µM (inactive),> 100 µM (inactive),> 100 µM (inactive),> 100,33 µM (inactive),> 100 µM (inactive),49.2 µM (inactive),53.7 µM (inactive),> 100 µM (inactive),> 100 µM (inactive),75.7 µM (inactive),> 100 µM (inactive),,> 100 µM (inactive),> 100 µM (inactive),,> 100 µM (inactive),> 100 µM (inactive)
Nc1ccn(C2OC(CO)C(O)C2(F)F)c(=O)n1 (stereo not given),0.055 µM (active),0.108 µM (active),0.82 µM (active),0.973 µM (active),0.0579 µM (active),0.735,0.0249 µM (active),0.462 µM (active),0.325 µM (active),0.0847 µM (active),0.0391 µM (active),0.0504 µM (active),0.318 µM (active),0.0755 µM (active),1.88 µM (inactive),0.281 µM (active),0.214 µM (active),0.109 µM (active),0.667 µM (active),
